In one experiment the target is T1, CANX (Homo sapiens, UniProt P27824).
T1 construct: endogenous in cells; host or cells: HL-60 (ATCC CCL-240)
T1 sequence (P27824 21-592): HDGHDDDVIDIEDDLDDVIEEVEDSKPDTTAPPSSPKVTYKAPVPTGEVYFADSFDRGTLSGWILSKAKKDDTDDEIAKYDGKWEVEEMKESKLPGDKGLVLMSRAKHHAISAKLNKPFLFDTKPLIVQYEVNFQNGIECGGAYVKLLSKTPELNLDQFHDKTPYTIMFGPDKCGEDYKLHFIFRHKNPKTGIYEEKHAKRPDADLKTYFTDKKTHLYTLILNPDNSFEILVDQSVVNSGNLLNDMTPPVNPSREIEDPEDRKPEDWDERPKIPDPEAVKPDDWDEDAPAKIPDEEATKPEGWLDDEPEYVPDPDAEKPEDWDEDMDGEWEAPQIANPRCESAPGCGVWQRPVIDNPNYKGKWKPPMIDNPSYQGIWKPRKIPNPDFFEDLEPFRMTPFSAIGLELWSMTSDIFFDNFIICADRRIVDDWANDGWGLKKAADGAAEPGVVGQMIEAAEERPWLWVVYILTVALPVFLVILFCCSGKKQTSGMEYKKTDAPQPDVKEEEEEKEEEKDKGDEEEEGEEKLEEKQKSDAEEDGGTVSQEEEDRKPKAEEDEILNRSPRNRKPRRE
Description: TPP-CCR in living HL-60 cells. The experiment is classed as cell-based.

The next experiment has as its target T2, FECH (Homo sapiens, UniProt P22830).
T2 construct: endogenous in cells; host or cells: HL-60 (ATCC CCL-240)
T2 sequence (P22830 55-423): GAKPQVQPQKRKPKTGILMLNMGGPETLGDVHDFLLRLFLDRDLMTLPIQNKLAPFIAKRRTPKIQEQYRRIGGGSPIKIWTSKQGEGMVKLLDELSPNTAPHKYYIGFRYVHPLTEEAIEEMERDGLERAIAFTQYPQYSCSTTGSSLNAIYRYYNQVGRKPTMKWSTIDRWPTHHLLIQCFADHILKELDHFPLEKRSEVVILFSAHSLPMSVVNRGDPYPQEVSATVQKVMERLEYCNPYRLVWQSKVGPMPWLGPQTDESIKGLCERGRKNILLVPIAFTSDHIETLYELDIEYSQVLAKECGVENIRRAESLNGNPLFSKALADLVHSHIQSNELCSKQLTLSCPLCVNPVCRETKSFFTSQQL
Description: TPP-CCR in living HL-60 cells. The class given is cell-based.

The mark [1] stands for this setting: living HL-60 cells, […] °C, TMT-MS.

The structures appear in SMILES notation.

At CANX (TPP-CCR, living cells, CANX), `Cc1cnc(Nc2ccc(F)cc2Cl)nc1-c1c[nH]c(C(=O)N[C@H](CO)c2cccc(Cl)c2)c1` [ERK 11e] gave a Hill slope of 0.80. In addition, at CANX (setting [1]), a half-maximal effect (EC50) was put at 871 nM and the “Hill slope (CANX)” value is reported as 0.80. Also, the Hill slope at FECH (TPP-CCR, living cells, FECH) is 0.38. For the same molecule, on FECH (setting [1]), the EC50 was 631 nM and the “Hill slope (FECH)” value is recorded as 0.38.

The record behind these values is PMC9147192, “Small Molecule Arranged Thermal Proximity Coaggregation (smarTPCA)—A Novel Approach to Characterize Protein–Protein Interactions in Living Cells by Similar Isothermal Dose–Responses” (International Journal of Molecular Sciences, 2022).
